Assay results: patent US10131652B2, “Pyrimidinyloxy benzene derivatives as herbicides” (E. I. DU PONT DE NEMOURS AND COMPANY, priority 2014, dated 2018)
Read-outs that look alike come from different tables or passages of the source.

Key:
Test in all cases: Test F pre-/postemergence plant response
Format in all cases: in vivo
[1] = tested on: Brazilian crabgrass (Digitaria horizontalis); details: Digitaria horizontalis, scale 0 to 100, read-out: Plant response rating, Crabgrass, Brazil
Outline: (§1)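 Values are visual ratings, where 100 is complete control and 0 is no effect, given after 14 to 21 days of greenhouse growth. Test chemicals in a non-phytotoxic, surfactant-containing solvent were sprayed on soil just after planting or on emerged seedlings at the 1- to 4-leaf stage.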

[2] = tested on: Italian ryegrass (Lolium multiflorum); details: Lolium multiflorum, scale 0 to 100, read-out: Plant response rating, Ryegrass, Italian; for pest or weed control at 16 g/ha: 16 g ai/ha; for pest or weed control at 31 g/ha: 31 g ai/ha; for pest or weed control at 125 g/ha: 125 g ai/ha
Outline: as §1

[3] = tested on: barnyardgrass (Echinochloa crus-galli); details: Echinochloa crus-galli, scale 0 to 100, read-out: Plant response rating, Barnyardgrass
Outline: as §1

[4] = tested on: dayflower (Virginia (VA) dayflower, Commelina virginica); details: Commelina virginica, scale 0 to 100, read-out: Plant response rating, Dayflower, VA
Outline: as §1

[5] = tested on: green foxtail (Setaria viridis); details: Setaria viridis, pre-emergence, Preemergence, scale 0 to 100, read-out: Plant response rating, Foxtail, Green
Outline: as §1

[6] = tested on: hairy beggarticks (Bidens pilosa); details: Bidens pilosa, scale 0 to 100, read-out: Plant response rating, Beggarticks
Outline: as §1

[7] = tested on: johnsongrass (Sorghum halepense); details: Sorghum halepense, pre-emergence, scale 0 to 100, read-out: Plant response rating, Johnsongrass
Outline: as §1

[8] = tested on: lambsquarters (Chenopodium album); details: Chenopodium album, pre-emergence, Preemergence, scale 0 to 100, read-out: Plant response rating, Lambsquarters
Outline: as §1

[9] = tested on: large (Lg) crabgrass (Digitaria sanguinalis); details: Digitaria sanguinalis, pre-emergence, scale 0 to 100, read-out: Plant response rating, Crabgrass, Large
Outline: as §1

[10] = tested on: morningglory (Ipomoea coccinea); details: Ipomoea, pre-emergence, scale 0 to 100, read-out: Plant response rating, Morningglory
Outline: as §1

[11] = tested on: nightshade (eastern black nightshade, Solanum ptycanthum); details: Solanum, pre-emergence, scale 0 to 100, read-out: Plant response rating, Nightshade
Outline: as §1

[12] = tested on: ragweed (common ragweed, Ambrosia elatior); details: Ambrosia artemisiifolia, scale 0 to 100, read-out: Plant response rating, Ragweed
Outline: as §1

[13] = tested on: sandbur (southern sandbur, Cenchrus echinatus); details: Cenchrus echinatus, scale 0 to 100, read-out: Plant response rating, Sandbur
Outline: as §1

[14] = tested on: waterhemp (common waterhemp, Amaranthus rudis); details: Amaranthus tuberculatus, scale 0 to 100, read-out: Plant response rating, Waterhemp
Outline: as §1

[15] = tested on: wild poinsettia (Euphorbia heterophylla); details: Euphorbia heterophylla, scale 0 to 100, read-out: Plant response rating, Poinsettia, Wild
Outline: as §1

[16] = tested on: yellow nutsedge (Cyperus esculentus); details: Cyperus, pre-emergence, scale 0 to 100, read-out: Plant response rating, Nutsedge, Yellow
Outline: as §1

[17] = post-emergence, 16 g ai/ha Postemergence
[18] = post-emergence, 31 g ai/ha Postemergence
[19] = post-emergence, 62 g ai/ha Postemergence
[20] = post-emergence, 125 g ai/ha Postemergence
[21] = pre-emergence, 16 g ai/ha Preemergence
[22] = pre-emergence, 31 g ai/ha Preemergence
[23] = pre-emergence, 62 g ai/ha Preemergence
[24] = pre-emergence, 125 g ai/ha Preemergence

**Q.** What does the source list for `Fc1cccc(Oc2ncc(Br)cn2)c1-c1cc(C(F)F)no1` [Compound 145, 5-bromo-2-[2-[3-(difluoromethyl)-5-isoxazolyl]-3-fluorophenoxy]pyrimidine]?
**A.** pest or weed control at 16 g/ha [1, 17]: 20%; pest or weed control at 31 g/ha [1, 18]: 20%; pest or weed control at 62 g/ha [1, 19]: 40%; pest or weed control at 125 g/ha [1, 20]: 50%; pest or weed control at 16 g/ha [1, 21]: 5%; pest or weed control at 31 g/ha [1, 22]: 80%; pest or weed control at 62 g/ha [1, 23]: 95%; pest or weed control at 125 g/ha [1, 24]: 100%; pest or weed control at 16 g/ha ([2]; post-emergence, Postemergence): 10%; pest or weed control at 31 g/ha ([2]; post-emergence, Postemergence): 5%; pest or weed control at 62 g/ha ([2]; post-emergence, 62 g ai/ha, Postemergence): 10%; pest or weed control at 125 g/ha ([2]; post-emergence, Postemergence): 15%; pest or weed control at 16 g/ha ([2]; pre-emergence, Preemergence): 25%; pest or weed control at 31 g/ha ([2]; pre-emergence, Preemergence): 20%; pest or weed control at 125 g/ha ([2]; pre-emergence, Preemergence): 90%; pest or weed control at 62 g/ha ([2]; pre-emergence, Preemergence): 40%; pest or weed control at 16 g/ha [3, 17]: 10%; pest or weed control at 31 g/ha [3, 18]: 25%; pest or weed control at 62 g/ha [3, 19]: 50%; pest or weed control at 125 g/ha [3, 20]: 70%; pest or weed control at 16 g/ha [3, 21]: 0%; pest or weed control at 31 g/ha [3, 22]: 5%; pest or weed control at 62 g/ha [3, 23]: 30%; pest or weed control at 125 g/ha [3, 24]: 75%; pest or weed control at 16 g/ha [4, 17]: 50%; pest or weed control at 31 g/ha [4, 18]: 60%; pest or weed control at 62 g/ha [4, 19]: 75%; pest or weed control at 125 g/ha [4, 20]: 85%; pest or weed control at 16 g/ha [4, 21]: 0%; pest or weed control at 31 g/ha [4, 22]: 0%; pest or weed control at 62 g/ha [4, 23]: 35%; pest or weed control at 125 g/ha [4, 24]: 70%; pest or weed control at 16 g/ha ([5]; 16 g ai/ha): 5%; pest or weed control at 31 g/ha ([5]; 31 g ai/ha): 40%; pest or weed control at 125 g/ha ([5]; 125 g ai/ha): 100%; pest or weed control at 62 g/ha [5]: 100%; pest or weed control at 16 g/ha [6, 17]: 55%; pest or weed control at 31 g/ha [6, 18]: 50%; pest or weed control at 62 g/ha [6, 19]: 65%; pest or weed control at 125 g/ha [6, 20]: 70%; pest or weed control at 16 g/ha [6, 21]: 0%; pest or weed control at 31 g/ha [6, 22]: 35%; pest or weed control at 62 g/ha [6, 23]: 30%; pest or weed control at 125 g/ha [6, 24]: 25%; pest or weed control at 16 g/ha ([7]; 16 g ai/ha Preemergence): 0%; pest or weed control at 31 g/ha ([7]; 31 g ai/ha Preemergence): 20%; pest or weed control at 125 g/ha ([7]; 125 g ai/ha Preemergence): 85%; pest or weed control at 62 g/ha ([7]; Preemergence): 100%; pest or weed control at 16 g/ha ([8]; 16 g ai/ha): 100%; pest or weed control at 31 g/ha ([8]; 31 g ai/ha): 100%; pest or weed control at 125 g/ha ([8]; 125 g ai/ha): 100%; pest or weed control at 62 g/ha [8]: 100%; pest or weed control at 16 g/ha ([9]; 16 g ai/ha Preemergence): 10%; pest or weed control at 31 g/ha ([9]; 31 g ai/ha Preemergence): 95%; pest or weed control at 62 g/ha ([9]; 62 g ai/ha Preemergence): 98%; pest or weed control at 125 g/ha ([9]; 125 g ai/ha Preemergence): 100%; pest or weed control at 16 g/ha ([10]; 16 g ai/ha Preemergence): 0%; pest or weed control at 31 g/ha ([10]; 31 g ai/ha Preemergence): 10%; pest or weed control at 125 g/ha ([10]; 125 g ai/ha Preemergence): 35%; pest or weed control at 62 g/ha ([10]; Preemergence): 15%; pest or weed control at 16 g/ha ([11]; 16 g ai/ha Preemergence): 90%; pest or weed control at 31 g/ha ([11]; 31 g ai/ha Preemergence): 80%; pest or weed control at 125 g/ha ([11]; 125 g ai/ha Preemergence): 98%; pest or weed control at 62 g/ha ([11]; Preemergence): 98%; pest or weed control at 16 g/ha [12, 17]: 30%; pest or weed control at 31 g/ha [12, 18]: 50%; pest or weed control at 62 g/ha [12, 19]: 60%; pest or weed control at 125 g/ha [12, 20]: 70%; pest or weed control at 16 g/ha [12, 21]: 0%; pest or weed control at 31 g/ha [12, 22]: 70%; pest or weed control at 125 g/ha [12, 24]: 80%; pest or weed control at 62 g/ha ([12]; pre-emergence, Preemergence): 65%; pest or weed control at 16 g/ha [13, 17]: 5%; pest or weed control at 31 g/ha [13, 18]: 5%; pest or weed control at 62 g/ha [13, 19]: 5%; pest or weed control at 125 g/ha [13, 20]: 15%; pest or weed control at 16 g/ha [13, 21]: 0%; pest or weed control at 31 g/ha [13, 22]: 35%; pest or weed control at 125 g/ha [13, 24]: 95%; pest or weed control at 62 g/ha ([13]; pre-emergence, Preemergence): 25%; pest or weed control at 16 g/ha [14, 17]: 95%; pest or weed control at 31 g/ha [14, 18]: 98%; pest or weed control at 62 g/ha [14, 19]: 100%; pest or weed control at 125 g/ha [14, 20]: 100%; pest or weed control at 16 g/ha [14, 21]: 100%; pest or weed control at 31 g/ha [14, 22]: 100%; pest or weed control at 125 g/ha [14, 24]: 100%; pest or weed control at 62 g/ha ([14]; pre-emergence, Preemergence): 100%; pest or weed control at 16 g/ha [15, 17]: 70%; pest or weed control at 31 g/ha [15, 18]: 75%; pest or weed control at 62 g/ha [15, 19]: 80%; pest or weed control at 125 g/ha [15, 20]: 80%; pest or weed control at 16 g/ha [15, 21]: 0%; pest or weed control at 31 g/ha [15, 22]: 0%; pest or weed control at 125 g/ha [15, 24]: 65%; pest or weed control at 62 g/ha ([15]; pre-emergence, Preemergence): 65%; pest or weed control at 16 g/ha ([16]; 16 g ai/ha Preemergence): 0%; pest or weed control at 31 g/ha ([16]; 31 g ai/ha Preemergence): 0%; pest or weed control at 125 g/ha ([16]; 125 g ai/ha Preemergence): 0%; pest or weed control at 62 g/ha ([16]; Preemergence): 0%
